We go through four compounds from paper PMC9648375, “Identification of the first-in-class dual inhibitors of human DNA topoisomerase IIα and indoleamine-2,3-dioxygenase 1 (IDO 1) with strong anticancer properties” (Journal of Enzyme Inhibition and Medicinal Chemistry, 2022).

The subject of test [1] is A549 (human lung carcinoma). As to the kind of experiment: BrdU assay. Type of test: cell-based. To be noted: for IC50: Homo sapiens, A549, BrdU, 24 h, read-out: IC50 ± SD, antiproliferative activity. As for the experimental part:
(§1) Since the inhibition of human DNA topoisomerase II should result in decreased proliferation of cancer cells, compounds 1-3 were tested using BrdU assay against a panel of cancer cell lines, including MCF-7 (estrogen-dependent human breast cancer cells), MDA-MB-231 (estrogen-independent human breast cancer cells), SCC-25 (squamous cell carcinoma of the tongue), FaDu (squamous cell carcinoma of the pharynx), A549 (human lung carcinoma), AGS (human gastric adenocarcinoma), LS-180, HT-29 (colon cancer cell lines), T98G (glioblastoma cells), and A375 (melanoma cells). Human normal skin fibroblasts (CRL-2072) were also used as a reference cell line. The BrdU assay allows quantification of cell proliferation since it measures incorporation of thymidine analogue (BrdU) during DNA replication. […] However, although the antiproliferative effect caused by 3 was mostly weaker (except for A549 and A375) than observed for 1, but the former compound was also characterised by lower toxicity against human normal cells. It results in selectivity index approaching 125 and 57, when it comes to lung cancer (A549) and melanoma cells (A375), respectively.
(§2) Cytotoxicity of the synthesised compounds were examined against a panel of the cancer cell lines, MCF-7 (estrogen-dependent human breast cancer cells), MDA-MB-231 (oestrogen-independent human breast cancer cells), SCC- 25 (squamous cell carcinoma of the tongue), FaDu (squamous cell carcinoma of the pharynx), A- 549 (human lung carcinoma), AGS (human gastric adenocarcinoma), LS-180, HT-29 (colon cancer cell lines), T98G (glioblastoma cells), A375 (melanoma cells). Human embryonic kidney (HEK-293) cells and human normal skin fibroblasts (CRL-2072) were used as reference cell lines. The investigated cell lines were obtained from American Type Culture Collection (ATCC; Manassas, VA, USA). A375, MCF-7, MDA-MB-231, T98G cells were cultured in Dulbecco’s Modified Eagle’s Medium (DMEM) (Sigma Aldrich, St. Louis, MO, USA) supplemented with 10% heat inactivated foetal bovine serum (FBS), penicillin (100 U/mL), and streptomycin (100 μg/mL). SCC-25 cells were cultured in 1:1 mixture of Dulbecco’s modified Eagle’s medium and Ham’s F12 Medium (Sigma Aldrich, St. Louis, MO, USA) supplemented with 400 ng/ml hydrocortisone, 10% FBS, penicillin (100 U/mL), and streptomycin (100 μg/mL). A549 and AGS cells were maintained in F-12K Medium (Sigma Aldrich, St. Louis, MO, USA). LS-180 and FaDu cells were cultured in Eagle’s Minimum Essential Medium. HT-29 cells were maintained in McCoy’s 5 A Medium (Sigma Aldrich, St. Louis, MO, USA) supplemented with 10%FBS, penicillin (100 U/mL), and streptomycin (100 μg/mL). All the cells were maintained at 37 °C in a humidified atmosphere of 5% CO2.
(§3) The BrdU assay was performed to determine the effect of synthesised compounds on the proliferation of cancer cells. BrdU assay indicates the rate of incorporation of 5′-bromo-2′-deoxy-uridine (BrdU) during DNA biosynthesis. In brief, cells were plated in 96-well plates (NUNC, Roskilde, Denmark) at the density of 3 × 10^4 cells/mL. […] Cell proliferation was examined after 24 h and 48 h of incubation according to the manufacturer’s protocol (Cell Proliferation ELISA BrdU, Roche Diagnostics GmbH, Penzberg,)Germany).
A general note: Uptake of a labelled nucleoside into DNA is a usual measure of proliferation.

In test [2] the test system is MDA-MB-231 (estrogen-independent human breast cancer cells). As to the kind of experiment: BrdU assay. Type of test: cell-based. The note with it: MDA-MB-231, BrdU, 24 h, read-out: IC50 ± SD, antiproliferative activity. As for the experimental part: as §1, §2, §3
The test system of test [3] is AGS (human gastric adenocarcinoma). As to the kind of experiment: BrdU assay. It is filed as cell-based. The note with it: 24 h, read-out: IC50 ± SD, antiproliferative activity. As for the experimental part: as §1, §2, §3
Test [4] relates to HT-29 (colon cancer cell line). As to the kind of experiment: BrdU assay. Type of test: cell-based. The note with it: Homo sapiens; HT-29, BrdU, 24 h; read-out: IC50 ± SD, antiproliferative activity. As for the experimental part: as §1, §2, §3
Test [5] has as its target T1, human DNA topoisomerase IIα (Homo sapiens, UniProt P11388).
T1 construct: purchased Inspiralis Ltd, Norwich, UK
Briefly: Stabilisation of covalent DNA-enzyme cleavage complex (Topoisomerase II Drug Screening Kit). To be noted: 50 µM (Figure S4), linear DNA cleavage intermediate. Type of test: biochemical. As to the method:
As relaxation of supercoiled DNA (scDNA) is one of numerous functions of topoisomerase IIα, so the appearance/disappearance of relaxed DNA bands during agarose gel electrophoresis can be used to identify compounds that inhibit the enzyme.
Determination of the inhibitory effect of compounds 1-10 against human topoisomerase Iiα was performed using Human Topoisomerase II Relaxation Assay (Inspiralis Ltd, Norwich, UK) and Topoisomerase II Drug Screening Kit (TopoGEN Inc., Buena Vista, CO, USA) following the manufacturer’s instructions. Briefly, the increased concentrations of the compounds were mixed with the reaction mixture, incubated according to the protocol and, after reaction termination, the samples were analysed by electrophoresis using 1% agarose gel containing […] of ethidium bromide in Tris-Acetate-EDTA (TAE) buffer. Visualisation of the bands was performed using an enhanced chemiluminescence system (Syngene G:BOX Chemi XT4, Cambridge, UK). For the quantitative determination of topoisomerase II inhibition, images were densitometrically scanned.
topoII + compound 4 (100 µM); lane 7: scDNA + topoII + compound 5 (100 µM); lane 8: scDNA + topoII
+ compound 6 (100µM); lane 9: scDNA + topoII + compound 7 (100 µM); lane 10: scDNA + topoII +
compound 8 (100µM); lane 11: scDNA + topoII + compound 9 (100µM); lane 12: scDNA + topoII +
Figure S4. […] Lane 1: scDNA; […]

In test [6] the test system is panel of cancer cell lines. Briefly: BrdU assay, whole panel. It is filed as cell-based, human. The note with it: cell line not named, highest value. As for the experimental part: as §1, with “respectively. […]” for “respectively.”

≈ marks a conversion by molar mass, not a printed value. Some results are limits rather than exact numbers.

T1 sequence (P11388 whole entry): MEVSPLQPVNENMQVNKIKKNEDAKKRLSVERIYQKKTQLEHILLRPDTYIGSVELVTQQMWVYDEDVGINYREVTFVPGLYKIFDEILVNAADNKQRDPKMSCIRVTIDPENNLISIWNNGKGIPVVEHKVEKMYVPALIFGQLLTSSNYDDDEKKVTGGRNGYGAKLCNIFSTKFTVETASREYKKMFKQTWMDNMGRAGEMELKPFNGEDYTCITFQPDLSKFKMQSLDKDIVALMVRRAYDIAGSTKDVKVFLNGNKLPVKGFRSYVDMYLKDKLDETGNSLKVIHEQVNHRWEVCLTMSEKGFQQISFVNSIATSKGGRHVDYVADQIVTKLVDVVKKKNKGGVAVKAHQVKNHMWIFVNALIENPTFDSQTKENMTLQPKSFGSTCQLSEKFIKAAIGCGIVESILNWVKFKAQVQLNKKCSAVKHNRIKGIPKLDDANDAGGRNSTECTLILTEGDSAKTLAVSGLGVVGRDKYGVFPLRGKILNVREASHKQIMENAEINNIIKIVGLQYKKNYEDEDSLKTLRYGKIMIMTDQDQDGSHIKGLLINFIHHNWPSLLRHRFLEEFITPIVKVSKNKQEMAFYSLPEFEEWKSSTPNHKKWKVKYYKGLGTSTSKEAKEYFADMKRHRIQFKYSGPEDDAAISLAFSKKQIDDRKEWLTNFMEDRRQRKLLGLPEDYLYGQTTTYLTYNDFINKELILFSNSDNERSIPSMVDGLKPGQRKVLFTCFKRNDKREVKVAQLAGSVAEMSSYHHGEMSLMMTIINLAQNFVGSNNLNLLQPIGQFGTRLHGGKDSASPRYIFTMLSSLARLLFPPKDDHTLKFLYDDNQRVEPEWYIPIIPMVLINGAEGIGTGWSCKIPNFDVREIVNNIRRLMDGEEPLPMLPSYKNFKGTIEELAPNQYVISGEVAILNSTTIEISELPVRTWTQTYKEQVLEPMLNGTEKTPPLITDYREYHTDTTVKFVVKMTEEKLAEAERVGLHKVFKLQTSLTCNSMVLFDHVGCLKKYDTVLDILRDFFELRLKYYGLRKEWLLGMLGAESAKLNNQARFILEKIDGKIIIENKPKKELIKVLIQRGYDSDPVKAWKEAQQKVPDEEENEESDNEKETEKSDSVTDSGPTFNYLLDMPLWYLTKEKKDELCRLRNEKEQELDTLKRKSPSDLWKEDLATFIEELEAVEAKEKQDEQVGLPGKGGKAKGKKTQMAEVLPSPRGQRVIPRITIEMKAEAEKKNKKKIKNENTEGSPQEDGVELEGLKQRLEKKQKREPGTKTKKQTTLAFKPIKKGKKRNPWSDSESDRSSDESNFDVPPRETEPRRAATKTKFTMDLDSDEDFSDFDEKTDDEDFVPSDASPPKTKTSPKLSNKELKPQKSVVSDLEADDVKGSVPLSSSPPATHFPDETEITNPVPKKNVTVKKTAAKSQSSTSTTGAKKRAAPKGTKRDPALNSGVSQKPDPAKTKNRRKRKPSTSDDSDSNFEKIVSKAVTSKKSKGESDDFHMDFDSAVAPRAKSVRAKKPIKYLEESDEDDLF

For the compound `O=C(NNC(=S)Nc1ccc(N=Nc2ccccc2)cc1)c1ccccc1[N+](=O)[O-]` [Compound 3, 4-(4-Phenylazophenyl)-1-(2-nitrobenzoyl)thiosemicarbazide], the “selectivity index, A549 vs. human normal skin fibroblasts” value in test [1] (BrdU assay, lung cancer (A549)) was roughly 125. The IC50 in test [1] was 0.25 ± 0.01 µg/mL (≈ 0.595 µM); in test [2], greater than 100 µg/mL; in test [3] it was 43.9 ± 1.94 µg/mL (≈ 104 µM); in test [4], 13.1 ± 0.81 µg/mL (≈ 31.3 µM).
Consider `COc1cc([C@@H]2c3cc4c(cc3[C@@H](O[C@@H]3O[C@@H]5CO[C@@H](C)O[C@H]5[C@H](O)[C@H]3O)[C@H]3COC(=O)[C@H]23)OCO4)cc(OC)c1O` [Etoposide, etoposide, reference compound], for which the “stabilisation of the covalent DNA-enzyme cleavage complex” value in test [5] is “able to stabilise the covalent DNA-enzyme cleavage complex”. The IC50 in test [1] was 2.6 ± 0.11 µg/mL (≈ 4.42 µM); in test [2] it was greater than 100 µg/mL; in test [3], 46 ± 2.61 µg/mL (≈ 78.1 µM); in test [4], 19.9 ± 0.25 µg/mL (≈ 33.9 µM).
On to `O=C(Cc1cccc2ccccc12)NNC(=S)Nc1ccc(N=Nc2ccccc2)cc1` [Compound 2, 4-(4-Phenylazophenyl)-1-[(naphth-1-yl)acetyl]thiosemicarbazide], for which the IC50 is 0.83 ± 0.03 µg/mL (≈ 1.89 µM) in test [1], greater than 100 µg/mL in test [2], 62.3 ± 3.04 µg/mL (≈ 142 µM) in test [3] and 9.47 ± 0.51 µg/mL (≈ 21.5 µM) in test [4].
Regarding `CC(C)c1cccc(C(C)C)c1NC(=S)NNC(=O)Cc1cccc2ccccc12` [Compound 1, 4-(2,6-Diisopropylphenyl)-1-[(naphth-1-yl)acetyl]thiosemicarbazide], the IC50 is 0.23 ± 0.01 µg/mL (≈ 0.548 µM) in test [1], 26.3 ± 0.99 µg/mL (≈ 62.7 µM) in test [2], 0.51 ± 0.02 µg/mL (≈ 1.22 µM) in test [3] and 0.44 ± 0.03 µg/mL (≈ 1.05 µM) in test [4]. The “antiproliferative activity, fold higher than that of etoposide” value in test [6] is no more than 90 fold.

Broadly, the IC50 is the concentration at which inhibition is half-maximal.
